Reference: patent US20080166323A1, “Activators of Hexosamine Biosynthesis as Inhibitors of Injury Induced by Ischemia or Hermorrhagic Shock” (UAB RESEARCH FOUNDATION, priority 2004, published 2008)

Columns and labels:
[1] = test system: rat model of trauma-hemorrhage and resuscitation; experiment: trauma/hemorrhage mimicking the field, Example 2 (glucosamine only during resuscitation); format: in vivo
Protocol: The following experiments were conducted using a model of soft tissue trauma-hemorrhage (T-H) as described in Ba, et al., Crit. Care Med (2000) 28(8):2837-2842; Chaudry, et al., Can J Physiol Pharmacol (1975) 53(5):859-865; Ma, et al., Am J Physiol Gastrointest Liver Physiol (2003) 284(1):G107-G115; and Harkema and Chaudry, Crit. Care Med (1992) 20(2):263-275. Male rats were fasted for 16 h and divided into three groups: (1) sham (trauma only); (2) T-H (trauma with subsequent hemorrhage and resuscitation); and (3) G-T-H (trauma with subsequent hemorrhage and resuscitation in the presence of glucosamine). All groups underwent a 5 cm ventral midline laparotomy to induce soft-tissue trauma and were cannulated in both femoral arteries and the right femoral vein. The T-H and G-T-H groups received an infusion of 3 mls over 30 minutes of Ringer's lactate (RL) containing, in the G-T-H group only, 10 mM glucosamine. These two groups were then bled to a mean arterial pressure of 40 mm Hg within 10 minutes and maintained at that pressure for 80 minutes. The T-H group was then infused with 1 ml RL over 10 minutes, while in the G-T-H group the infusate contained an iso-osmotic solution of 75 mM glucosamine (pH 7.4) in 50% RL. The two groups were then resuscitated with four times the maximum hemorrhage volume over a period of 60 minutes with RL (T-H) or RL containing 10 mM glucosamine (G-T-H). Sham-operated animals underwent the same surgical procedure but were neither bled nor resuscitated. Two hours post-resuscitation, a catheter was inserted into the left ventricle via the right carotid artery. Organ blood flows were determined using radioactive microspheres. Cardiac function and blood parameters were also assessed. The data for these experiments are shown in Tables 1 and 2 (values are mean ±standard error of the mean).
A second experiment was performed in order to mimic a trauma/hemorrhage in the field. There were no treatments in any of the three groups prior to trauma/hemorrhage. The T-H and G-T-H groups were partially resuscitated identically with two times the maximum hemorrhage volume over a period of 30 minutes. In the G-T-H group, a 1 ml bolus containing an iso-osmotic solution of 75 mM glucosamine (pH 7.4) in 50% RL was administered, while in the T-H group this bolus contained only RL. This was then followed with two times the maximum hemorrhage volume over a period of 30 minutes with RL (T-H) or RL containing 10 mM glucosamine (G-T-H). Sham-operated animals underwent the same surgical procedure but were neither bled nor resuscitated. The data for this experiment are shown in Tables 3 and 4 (values are mean ±standard error of the mean).

perfused hearts = experiment: calcium paradox in perfused hearts (Langendorff); parameters: species or system rat; conditions: 5-minute pretreatment of control hearts
Protocol: The effect of short-term hyperglycemia (2-5 days) on the calcium paradox was explored. The protocol (a 30-minute stabilization after hanging the heart on a Langendorff apparatus, a Ca^2+-free buffer for 10 min, a buffer containing 1.25 mM Ca^2+ buffer for 15 min) was initially applied to perfused hearts from control rats. When calcium was removed from the perfusate, the heart gradually ceased beating (FIG. 2A), although no protein loss from the heart was detected (FIG. 3C). […] The decrease in left ventricular […] pressure (LVDP) and an elevation in end diastolic pressure (EDP), as well as protein loss and blanching signaled the transition to a “stone heart” (Zimmerman, Cardiovasc Res (2000) 45(1):119-121) in hearts from all control animals examined.
Azaserine (AZA), the inhibitor of GFAT and HBP flux (Marshall, et al., J Biol Chem (1991) 266(8):4706-4712), negated the effects of hyperglycemia, restoring sensitivity to the paradox in 3 of 7 hearts (FIG. 2B). […] This decreased somewhat the protection seen with hyperglycemia, but made the reversal seen with azaserine more pronounced (FIGS. 2B and 3).
To confirm the involvement of the HBP in the protection due to hyperglycemia, a complementary series of experiments at a final Ca^2+ concentration of 1.25 mM were performed.
An independent mechanism of increasing metabolites in the HBP is to provide the heart with free fatty acids (Hawkins, et al., J Clin Invest (1997) 99(9):2173-2182). This occurs because of the “glucose-sparing” effect, a rapid block on the entry of glucose into the glycolytic pathway because of an inhibition of phosphofructokinase. […] In addition, SKF96365 (also known as 1-[β-[3-(4-methoxyphenyl)propoxy]-4-methoxyphenethyl]-1H-imidazole, HCl; available from Calbiochem, San Diego, Calif.) as an independent means of blocking the channels responsible for CCE was utilized (Putney, Capacitative Calcium Entry (1997) Austin: Landes Biomedical). This too was at least partially effective in 4 of 6 animals (FIG. 4).

[2] = rat, G-T-H (n = 8), 2 h after T-H and resuscitation, Example 2, mean ± SEM
[3] = rat, G-T-H (n = 8), 2 h after T-H, glucosamine only during resuscitation, mean ± SEM

## N[C@H]1C(O)O[C@H](CO)[C@@H](O)[C@@H]1O (stereo partly shown) [glucosamine]
[1]; glucosamine only during resuscitation, Example 2
  protection in trauma/hemorrhage: remarkably protective
[1]; [2]
  Regional Blood Flow: Brain: 151.58 ± 13.97 ml/min/100 g tissue
  Regional Blood Flow: Cardiac: 933.65 ± 114.73 ml/min/100 g tissue
  Regional Blood Flow: Cecum: 86.39 ± 10.70 ml/min/100 g tissue
  Regional Blood Flow: Gastric: 71.08 ± 6.84 ml/min/100 g tissue
  Regional Blood Flow: Hepatic Artery: 45.10 ± 6.58 ml/min/100 g tissue
  Regional Blood Flow: Large Intestine: 96.83 ± 6.90 ml/min/100 g tissue
  Regional Blood Flow: Lung: 29.71 ± 4.87 ml/min/100 g tissue
  Regional Blood Flow: Mesenteric: 43.12 ± 9.56 ml/min/100 g tissue
  Regional Blood Flow: Muscle: 32.97 ± 5.00 ml/min/100 g tissue
  Regional Blood Flow: Pancreatic: 52.08 ± 5.53 ml/min/100 g tissue
  Regional Blood Flow: Portal Vein: 211.57 ± 23.79 ml/min/100 g tissue
  Regional Blood Flow: Renal: 472.07 ± 49.40 ml/min/100 g tissue
  Regional Blood Flow: Skin: 11.65 ± 1.25 ml/min/100 g tissue
  Regional Blood Flow: Small Intestine: 233.60 ± 27.07 ml/min/100 g tissue
  Regional Blood Flow: Splenic: 54.77 ± 4.44 ml/min/100 g tissue
  Regional Blood Flow: Thymus: 40.70 ± 4.96 ml/min/100 g tissue
  Regional Blood Flow: Total Hepatic: 256.67 ± 27.12 ml/min/100 g tissue
[1]; [3]
  +dp/dt: 13656 ± 7786 mm Hg/sec
  Cardiac Output: 33.49 ± 2.12 ml/min 100 g body wt
  Heart Rate: 394.50 ± 13.13 beat/minute
  Mean Arterial Pressure: 97.88 ± 4.19 mm Hg
  Oxygen Consumption: 0.93 ± 0.23 ml/min 100 g body wt
  Oxygen Delivery: 2.52 ± 0.17 ml/min 100 g body wt
  Oxygen Extraction: 34.48 ± 7.45%
  Stroke volume: 84.95 ± 4.66 μl/beat/100 g body wt
  Total Peripheral Resistance: 3.05 ± 0.31 mm Hg/ml/min/100 g body wt
  −dp/dt: 8549 ± 549 mm Hg/sec
Perfused hearts
  function prior to calcium removal: did not alter function
Perfused hearts; final Ca2+ 1.25 mM
  hearts with significant protection following calcium readdition: 7 of 7
Perfused hearts; final Ca2+ 1.25 mM, data not shown
  Protein loss inhibited: 88%
